Each structure is given as a SMILES string.

This assay deals with T1, sGC α1/β1 heterodimer stably expressed in CHO-K1 cells (CHO-K1/sGC) (Homo sapiens, UniProt Q02108+Q02153).
T1 construct: expressed in transfected cells
T1 sequence (Q02108 1-690): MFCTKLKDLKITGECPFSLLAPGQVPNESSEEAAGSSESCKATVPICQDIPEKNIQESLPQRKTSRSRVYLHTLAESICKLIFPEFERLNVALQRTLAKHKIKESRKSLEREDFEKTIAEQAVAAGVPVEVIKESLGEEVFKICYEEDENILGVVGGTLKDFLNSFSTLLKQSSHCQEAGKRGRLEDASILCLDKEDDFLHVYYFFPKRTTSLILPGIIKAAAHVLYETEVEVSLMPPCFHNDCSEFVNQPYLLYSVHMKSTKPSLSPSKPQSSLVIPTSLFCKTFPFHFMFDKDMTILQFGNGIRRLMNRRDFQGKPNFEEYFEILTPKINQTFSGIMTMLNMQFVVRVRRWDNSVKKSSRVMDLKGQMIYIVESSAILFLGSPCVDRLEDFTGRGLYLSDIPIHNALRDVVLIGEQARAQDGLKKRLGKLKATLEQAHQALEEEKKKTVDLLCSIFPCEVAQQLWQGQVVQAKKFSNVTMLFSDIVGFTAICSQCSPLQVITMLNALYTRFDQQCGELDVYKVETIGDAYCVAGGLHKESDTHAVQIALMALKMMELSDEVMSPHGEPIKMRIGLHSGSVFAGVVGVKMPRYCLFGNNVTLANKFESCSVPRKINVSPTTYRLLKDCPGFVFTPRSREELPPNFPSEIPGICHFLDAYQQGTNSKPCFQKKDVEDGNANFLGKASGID
T1 sequence (Q02153 1-619): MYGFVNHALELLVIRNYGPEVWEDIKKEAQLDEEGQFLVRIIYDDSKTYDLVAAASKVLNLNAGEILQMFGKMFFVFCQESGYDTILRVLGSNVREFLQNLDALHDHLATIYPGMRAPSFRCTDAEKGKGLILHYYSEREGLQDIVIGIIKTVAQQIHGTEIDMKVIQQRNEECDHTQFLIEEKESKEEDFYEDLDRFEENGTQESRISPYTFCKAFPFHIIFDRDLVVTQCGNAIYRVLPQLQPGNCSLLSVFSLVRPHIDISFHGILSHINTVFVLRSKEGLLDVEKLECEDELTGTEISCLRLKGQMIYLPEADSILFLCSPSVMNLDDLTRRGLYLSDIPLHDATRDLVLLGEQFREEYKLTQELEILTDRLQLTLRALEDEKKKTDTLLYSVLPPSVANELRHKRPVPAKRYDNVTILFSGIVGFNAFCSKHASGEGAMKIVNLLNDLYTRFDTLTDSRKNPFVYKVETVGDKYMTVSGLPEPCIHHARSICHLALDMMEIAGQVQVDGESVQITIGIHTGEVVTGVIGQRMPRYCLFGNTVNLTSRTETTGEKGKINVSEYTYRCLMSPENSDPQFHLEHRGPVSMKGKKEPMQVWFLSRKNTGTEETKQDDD
The experiment in a line: Cell-based sGC functional assay (CASA assay), cGMP generation by HTRF. To be noted: for Emax: CHO-K1, maximum cGMP production of Compound A set to 100% activation, read-out: % Act. (percent activation relative to Compound A); for EC50: CHO-K1/sGC cells, 1 hr at 37° C., 4P fit, presence or absence of DETA-NO not given, read-out: IP (nM) (inflection point); for % Act. (percent activation relative to Compound A): maximum cGMP production of Compound A set to 100% activation. From the text: Biological Assay 1: Cell-Based sGC Functional Assay (CASA Assay) Rationale
sGC is a heme-containing enzyme that converts GTP to secondary messenger cGMP. Increases in cGMP levels affect several physiological processes including vasorelaxation through multiple downstream pathways. […] Heme-dependent activators (HDAs) preferentially activate sGC containing a ferrous heme group. To determine the effect of sGC activators on enzyme activity, the CASA assay was developed to monitor the generation of cGMP in a cell line that stably expresses the heterodimeric sGC protein.
A CHO-K1 cell line stably expressing the sGC α1/β1 heterodimer was generated using a standard transfection protocol. CHO-K1 cells were transfected with plasmids pIREShyghsGCα1 and pIRESneo-hsGCβ1 simultaneously using FUGENE reagent. Clones that stably express both subunits were selected with hygromycin and neomycin for ˜2 weeks. Clone #7 was chosen for the assay and was designated CHO-K1/sGC. CHO-K1/sGC cells were maintained in F-K12 medium containing 10% heat-inactivated Fetal Bovine Serum (FBS), 100 μg/mL penicillin/streptomycin, 0.5 mg/mL hygromycin and 0.25 mg/mL G418. The cells were then cryopreserved in LN2. On the day of the assay, cells were thawed and resuspended in EBSS Assay Buffer (Sigma, E3024) supplemented with 5 mM MgCl2, 10 mM HEPES (4-(2-hydroxyethyl)piperazine-1-ethanesulfonic acid) and 0.05% BSA (bovine serum albumin) (EAB) and cell density was then adjusted to 4×10^5/mL with EAB. IBMX (3-isobutyl-1-methylxanthin, 0.5 mM) was added to inhibit degradation of cGMP. Compounds were diluted from DMSO stock solutions and added to the assay at a final DMSO concentration of 2.5%. Cells were incubated with compounds in the presence and absence of 1 μM of Diethylenetriamine/nitric oxide adduct (DETA-NO; Sigma, 17018) for 1 hr at 37° C. At the end of the incubation period, the reaction was terminated and the cells were lysed with the detection reagents from Cisbio Kits. The level of intracellular cGMP was determined using an HTRF-based assay kit (CisBio, 62GM2PEC), which detects the displacement of a fluorescence labeled cGMP from its specific antibody. The cGMP produced by test compounds was directly compared to the maximum cGMP production (this value was set to equal 100% activation.) of the published sGC-HDA Compound A:
[drawing 101] (Example 1 in WO 2010/065275, published Jun. 10, 2010). The test compounds' activities were then expressed as a percentage of Compound A, the standard in every experiment. This percent activation was calculated either in the presence or absence of DETA-NO which was then plotted. IP and maximum fold induction was derived using ADA analysis software for 4P fit.
The compounds in the Examples of the instant invention had inflection points (IP) less than or equal to 10 μM and many had IPs less than or equal to about 1 μM.

For `CCCC(C)Oc1nc(-c2nc(N)c3c(n2)NC(=O)C3(C)c2ccc(F)cc2)cn2ccnc12` (racemic) [Example 65A, 4-amino-5-(4-fluorophenyl)-5-methyl-2-[8-(1-methyl-butoxy)imidazo [1,2-a]pyrazin-6-yl]-5,7-dihydro-6H-pyrrolo[2,3-d] pyrimidin-6-one], the Emax turned out to be 101% and the EC50 is 461 nM.
The matching figures for `CC(CNc1nc(-c2nc(N)c3c(n2)NC(=O)C3(C)c2ccc(F)cc2)cn2ccnc12)C(F)(F)F` (racemic) [Example 70, 4-amino-5-(4-fluorophenyl)-5-methyl-2-{8-[(3,3,3-trifluoro-2-methylpropyl)amino]imidazo [1,2-a]pyrazin-6-yl}-5,7-dihydro-6H-pyrrolo[2,3-d] pyrimidin-6-one]: 89% and 291 nM.
Consider `CC1(c2ccc(Cl)cc2)C(=O)Nc2nc(-c3cn4ccnc4c(OCC4CCCOC4)n3)nc(N)c21` (single isomer, unassigned; fast eluting) [Example 66A, 4-amino-5-(4-chlorophenyl)-5-methyl-2-[8-(tetrahydro-2H-pyran-3-ylmethoxy)imidazo[1,2-a]pyrazin-6-yl]-5,7-dihydro-6H-pyrrolo [2,3-d] pyrimidin-6-one (fast eluting)], for which the EC50 was found to be 1710 nM and the “% Act. (percent activation relative to Compound A)” value is on record as 115%.
`CC1(c2ccc(Cl)cc2)C(=O)Nc2nc(-c3cn4ccnc4c(OCC4CCCCO4)n3)nc(N)c21` (single isomer, unassigned; fast eluting) [Example 68A, 4-amino-5-(4-chlorophenyl)-5-methyl-2-[8-(tetrahydro-2H-pyran-2-ylmethoxy)imidazo[1,2-a]pyrazin-6-yl]-5,7-dihydro-6H-pyrrolo [2,3-d] pyrimidin-6-one (fast eluting)]: the Emax came to 86% and the EC50 was found to be 324 nM.
As for `C[C@H](Oc1nc(-c2nc(N)c3c(n2)NC(=O)C3(C)c2ccc(Cl)cc2)cn2ccnc12)c1ccccc1` (single isomer, unassigned; fast eluting) [Example 69A], the Emax amounted to 103% and the EC50 came out at 833 nM.
`CC1(c2ccc(Cl)cc2)C(=O)Nc2nc(-c3cn4ccnc4c(NCC4CCCCO4)n3)nc(N)c21` (single isomer, unassigned; fast eluting) [Example 71A, 4-amino-5-(4-chlorophenyl)-5-methyl-2-{8-[(tetrahydro-2H-pyran-2-ylmethyl)amino]imidazo [1,2-a]pyrazin-6-yl}-5,7-dihydro-6H-pyrrolo[2,3-d] pyrimidin-6-one (fast eluting)]: the Emax stood at 96% and the EC50 amounted to 175 nM.
The matching figures for `CC1(c2ccc(Cl)cc2)C(=O)Nc2nc(-c3cn4ccnc4c(NCC4CCCOC4)n3)nc(N)c21` (single isomer, unassigned; fast eluting) [Example 72A, 4-amino-5-(4-chlorophenyl)-5-methyl-2-{8-[(tetrahydro-2H-pyran-3-ylmethyl)amino]imidazo [1,2-a]pyrazin-6-yl}-5,7-dihydro-6H-pyrrolo[2,3-d] pyrimidin-6-one (fast eluting)]: 96% and 1080 nM.
As for `CC1(c2ccc(Cl)cc2)C(=O)Nc2nc(-c3cn4ccnc4c(OCC4CCCOC4)n3)nc(N)c21` (single isomer, unassigned; slow eluting) [Example 67B, 4-amino-5-(4-chlorophenyl)-5-methyl-2-[8-(tetrahydro-2H-pyran-3-ylmethoxy)imidazo[1,2-a]pyrazin-6-yl]-5,7-dihydro-6H-pyrrolo [2,3-d] pyrimidin-6-one (slow eluting)], the EC50 is 501 nM and the “% Act. (percent activation relative to Compound A)” value is on record as 94%.

(Values after patent publication US10245264B2, “Substituted imidazo[1,2-a]pyrazines as soluble guanylate cyclase activators” (Merck Sharp & Dohme Corp., priority 2015, dated 2019).)
